# Tests used:
# [1] = tested on: CAR T cells cocultured with Eμ-myc cells with or without macrophages (imMac); assay: Expansion assay of mCherry+ CAR T cells (IncuCyte live cell analysis) in cocultures; assay type: cell-based, mouse; conditions: for CAR T cell expansion: CAR T cells cocultured with Eμ-myc cells without macrophages, agent present; for CAR T cell expansion / CAR T cell expansion in cocultures with imMac: over 48 h
# Description: Macrophage development and polarization: BMDMs were generated from bone marrow cells harvested from femurs and tibias of WT or iNOS^−/− mice. […] On day 3, 10 ml of fresh medium with 20 ng/ml M-CSF was added. On day 5, the culture medium was entirely discarded and replaced by 15 ml of fresh medium with 20 ng/ml M-CSF. On day 6, BMDMs were activated for 24 h with 20 ng/ml of IL-4 and IL-10 (Peprotech) to develop imMac or cultured in media only to use as unMac. M-CSF (20 ng/ml) was added during activation with cytokines. On day 7, adherent cells were harvested by gentle scraping and used for in vitro experiments.
# Expansion assay: The expansion of mCherry^+ CAR T cells was determined by an IncuCyte S3 live cell analysis system (Essen Bioscience). 2×10^4 Eμ-myc cells and 2×10^4 CAR T cells were cocultured in the absence or presence of 0.5×10^4 macrophages (CAR T:Eμ-myc cell:Macrophage=1:1:0.25, unless otherwise indicated in the figures) in a 96-well black-walled clear bottom plate in 120 μl of media. Cell images were captured at 4× magnification. The expansion index was calculated by dividing the total integrated red intensity (RCU×m^2/mm^2) at each time point by the first time point.
# Immunoregulatory actions of macrophages on CAR T cells: To explore how M2-like macrophages may impact the cellular function of CAR T cells, the study employed a syngeneic coculture system (FIG. 3A). […] The BMDMs were either unpolarized (unMac) or induced to differentiate into M2-like macrophages by culturing with type 2 cytokines IL-4 and IL-10. […] The study next explored the impact of imMac on CAR T cell effector function. To exclude the direct contribution of macrophage effector activities in these functional assays, CAR T cells, Eμ-myc cells, and macrophages were first cocultured for 48 hours (FIG. 3G). Next, CAR T cells isolated from the cocultures were evaluated for their effector function against fresh Eμ-myc cells.
# [2] = tested on: CAR T cells cocultured with fresh Eμ-myc cells; assay: Cytokine secretion assay (Ella automated ELISA) with CAR T cells isolated from initial coculture; assay type: cell-based, mouse; conditions: for secretion of effector cytokine IFN-γ by CAR T cells / secretion of effector cytokine TNF-α by CAR T cells: CAR T cells isolated after 48 h coculture with Eμ-myc cells with NCX-4016 (100 PM) or PNT (50 μM), supernatants at 24 h
# Description: (§1) CAR T cell isolation from initial coculture for subsequent downstream assays: 1×10^6 CAR T cells and 1×10^6 Eμ-myc-GFP-FFL cells were cocultured in the absence or presence of 0.25×10^6 macrophages in a 6-well plate in 6 ml of media for 48 h. After initial coculture, cells were harvested, and T cells were isolated using Mouse T Cell Isolation Kit ([…] Technologies). […] Percentage of CAR-expressing T cells was determined with flow cytometry and were subsequently used for downstream assays.
# Cytokine secretion assay: 2×10^4 Eμ-myc cells were cocultured with 2×10^4 CAR T cells in a 96-well plate in a total volume of 100 μl of media. Supernatants were collected and analyzed for IFN-γ and TNF-α secretion using Ella automated immunoassay system (Proteinsimple Bio-techne) according to manufacturer's instructions.
# Eμ-myc cells = assay: Luciferase-based killing assay with CAR T cells isolated from initial coculture; assay type: cell-based, mouse; conditions: lysis at 24 h; for lysis of Eμ-myc cells by CAR T cells (ability to kill tumor cells): CAR T cells isolated after 48 h initial coculture with Eμ-myc cells with NCX-4016 (100 μM) or PNT (50 μM), no macrophages
# Description: as §1
# Luciferase-based killing assay: 2×10^4 Eμ-ALL-GFP-FFL cells were cocultured with CAR T cells at different effector-to-target ratios in a 96-well white-walled plate in 100 μl of media. Following incubation, 100 μl luciferase substrate reagent (ONE-Glo Luciferase assay system, Promega) was added to each well. Target cells alone were plated at the same cell density to determine maximum luciferase signals. Emitted luminescence was detected in the microplate reader (GloMax, Promega). Percent lysis was determined as (1−sample signal/maximum signal)×100.
# CAR T cells [3] = assay: Seahorse assay (ECAR, OCR) on CAR T cells from cocultures; assay type: cell-based, mouse; conditions: L-NIL 50 μM; coculture 48 h
# Description: (§2) CAR T cell isolation from initial coculture for subsequent downstream assays: 1×10^6 CAR T cells and 1×10^6 Eμ-myc-GFP-FFL cells were cocultured in the absence or presence of 0.25×10^6 macrophages in a 6-well plate in 6 ml of media for 48 h. After initial coculture, cells were harvested, and T cells were isolated using Mouse T Cell Isolation Kit (STEMCELL Technologies). T cell purity was 100% as tested by flow cytometry. Percentage of CAR-expressing T cells was determined with flow cytometry and were subsequently used for downstream assays.
# Seahorse assay: ECAR and OCR were measured using a Seahorse Extracellular Flux Analyzer (Agilent Technologies). XF96 microplates were coated with CellTak a day before analyses. To assay glycolytic function, T cells were resuspended in glucose-free XF medium supplied with 2 mM L-glutamine and 1 mM sodium pyruvate and seeded at 2×10^5 cells in 180 μl per well. Following incubation in a CO2-free incubator for 60 min at 37° C. for pH stabilization, ECAR was measured in response to 10 mM glucose, 1 μM oligomycin, and 50 mM 2-deoxyglucose. […] Following incubation in a CO2-free incubator for 60 min at 37° C. for pH stabilization, OCR was measured in response to 1 μM oligomycin, 1 μM FCCP, and 0.5 μM rotenone and antimycin.
# Eμ-myc B cell tumors = assay: Survival of Eμ-myc tumor-bearing mice treated with CAR T cells and L-NIL; assay type: in vivo, mouse; conditions: combination of 1928z CAR T cells and L-NIL (i.p. once per day, 20 mg/kg) compared to 1928z CAR T cells alone; Eμ-myc tumors in peritoneal cavity
# Description: Animal experiment: Six- to 10-week-old Rag1^+/+ mice of both sexes were intraperitoneally (i.p.) injected with 3×10^6 Eμ-myc-GFP-FFL cells to generate tumors localized in peritoneal cavity. Tumor engraftment was verified by bioluminescence imaging one day before CAR T cell transfer. Mice were randomized to different treatment groups without differences in pre-treatment tumor load. Seven days after tumor cell inoculation, mice were injected i.p. with 5×10^6 CAR T cells in 300 μl PBS. For survival experiments, L-NIL or PBS was administered i.p. once per day at 20 mg/kg body weight starting on the same day of tumor cell injection. […] Bioluminescence imaging was performed by IVIS Lumina III In Vivo Imaging System (PerkinElmer) with Living Image software (PerkinElmer).
# iNOS = assay: Griess assay of NO levels in coculture supernatants; assay type: cell-based, mouse; conditions: L-NIL 50 μM at 48 h, anti-IFN-γ 10 μg/mL at 44 h
# Description: Griess assay: 2×10^4 Eμ-myc cells and 2×10^4 CAR T cells were cocultured in the presence or absence of 0.5×10^4 macrophages in a 96-well plate in 120 μl of media. Coculture supernatants were harvested, and nitric oxide levels were measured using Griess reagent system (Promega) according to manufacturer's instructions. Absorbance was read at 560 nm using microplate reader (GloMax, Promega), and NO2 concentrations were determined by standard curve. Standard curve was prepared with diluting 0.1M sodium nitrite standard (provided in the kit) with the culture media used for experiments.
# [4] = tested on: arginine metabolism by imMac; assay: Global metabolomics (LC-MS) of coculture supernatants; assay type: cell-based, mouse; conditions: L-NIL (50 PM)
# Description: Metabolomics and ^13C6-labeled glucose tracing analyses: For global metabolomics analysis of cell-cultured medium, the cell-free medium was obtained by performing rapid centrifugation (17,000×g, 10 sec, room temperature) to collect the supernatant. The metabolites present in 20 μl of the cell-cultured medium were then extracted using 80 μl of ice-cold MeOH. Following a 30 min incubation on ice and subsequent centrifugation (17,000×g, 20 min, 4° C.), the supernatant was subjected to LC-HRMS analysis.
# LC-HRMS analysis was performed on a Vanquish UPLC coupled with a Q-Exactive HF mass spectrometer, employing the same conditions as the previously established methods 76. A ZIC-pHILIC LC column (4.6 mm inner diameter×150 mm length, […], MilliporeSigma, Burlington, MA) with a ZIC-pHILIC guard column (4.6 mm inner diameter×20 mm length, MilliporeSigma, Burlington, MA) was used for chromatographic separation at a column temperature of 30° C. The mobile phases included 10 mM (NH4)2CO3 and 0.05% NH40H in H2O for mobile phase A, and […]. The LC gradient conditions were as follows: 0 to 13 min: a decreasing of 80% to 20% of mobile phase B, 13 to 15 min: 20% of mobile phase B. The ionization was set to negative mode, with the MS scan range set to 60 to 1000 m/z. The mass resolution was 70,000, and the AGC target was 1×106. The sample loading volume was 5 μl. The unlabeled or ^13C-labeled metabolite peaks were extracted using EL-Maven with a metabolite standard-based in-house library. For global metabolomic profiling, peak areas of metabolites were normalized by the median value of the total for identified metabolite peak areas in each sample. For the ^13C-labeled metabolite peaks, the natural isotope peak area was corrected using IsoCor (Version 2.2).
# CAR T cells [5] = assay: Global metabolomics on CAR T cells from cocultures; assay type: cell-based, mouse; conditions: L-NIL (50 PM); coculture 48 h
# Description: as §2
# Global metabolomic profiling and 13C6-labeled glucose tracing of CAR T cells, 1×10^6 T cells were resuspended in either RPMI-1640 medium (RPMI+10% heat-inactivated dialyzed FBS) or ^13C6-glucose substituted RPMI-1640 medium (glucose-free RPMI+10% heat-inactivated dialyzed FBS+11.1 mM ^13C6-glucose). After 4 h incubation, cells were collected, rapidly centrifuged (17,000×g, 10 sec, room temperature), and medium was removed. T cells were washed with 1 ml of ice-cold PBS, and metabolites were extracted with 300 μl of 80% methanol via incubation at −80° C. for 15 min. Samples were centrifuged (17,000×g, 20 min, 4° C.), and supernatants were transferred to an Eppendorf tube and dried in a vacuum evaporator overnight. The dried extracts were resuspended in 20 μl of aqueous 50% methanol, clarified by centrifugation (17,000×g, 20 min, room temperature), and analyzed by LC-HRMS.
# LC-HRMS analysis was performed on a Vanquish UPLC coupled with a Q-Exactive HF mass spectrometer, employing the same conditions as the previously established methods 76. A ZIC-pHILIC LC column (4.6 mm inner diameter×150 mm length, […], MilliporeSigma, Burlington, MA) with a ZIC-pHILIC guard column (4.6 mm inner diameter×20 mm length, MilliporeSigma, Burlington, MA) was used for chromatographic separation at a column temperature of 30° C. […]
# [6] = CAR T cells and Eμ-myc cells with imMac, agent present (L-NIL 50 μM; anti-IFN-γ 10 μg/mL; c-PTIO)
# [7] = CAR T cells isolated after 48 h coculture with imMac with agent (L-NIL 50 μM, supernatants at 36 h; anti-IFN-γ 10 μg/mL, at 24 h)
smiles,measurement,setting,value
NC(=O)NCCC[C@H](N)C(=O)O [citrulline],CAR T cell expansion,[1],did not impact the expansion of CAR T cells
"CC1(C)N([O])C(c2ccc(C(=O)O)cc2)=[N+]([O-])C1(C)C [c-PTIO, carboxyl-PTIO]",CAR T cell expansion in cocultures with imMac,[1]; [6],partially rescued the expansion of CAR T cells
"N=C(NO)NCC[C@H](N)C(=O)O [nor-NOHA, N(omega)-hydroxy-nor-L-arginine]",CAR T cell expansion in cocultures with imMac,"[1]; physiological arginine concentration (150 μM), nor-NOHA (50 PM)",failed to rescue CAR T cell expansion
same,CAR T cell expansion in cocultures with imMac,"[1]; supraphysiological arginine concentration (1.15 mM) in culture media, nor-NOHA (50 PM)",did not restore CAR T cell expansion
CC(=O)Oc1ccccc1C(=O)Oc1cccc(CO[N+](=O)[O-])c1 [NCX-4016],secretion of effector cytokine IFN-γ by CAR T cells,[2],diminished
same,secretion of effector cytokine TNF-α by CAR T cells,[2],diminished
same,lysis of Eμ-myc cells by CAR T cells (ability to kill tumor cells),Eμ-myc cells,diminished ability of CAR T cells to kill tumor cells
same,CAR T cell expansion,[1],inhibition of CAR T cell expansion
"O=NOO [PNT, peroxynitrite]",secretion of effector cytokine IFN-γ by CAR T cells,[2],diminished
same,secretion of effector cytokine TNF-α by CAR T cells,[2],diminished
same,lysis of Eμ-myc cells by CAR T cells (ability to kill tumor cells),Eμ-myc cells,diminished ability of CAR T cells to kill tumor cells
same,CAR T cell expansion,[1],inhibition of CAR T cell expansion
"CC(=N)NCCCC[C@H](N)C(=O)O.Cl [L-NIL, N^6-(1-Iminoethyl)-lysine, hydrochloride]",production of effector cytokine IFN-γ by CAR T cells,[2]; [7],preserved
same,production of effector cytokine TNF-α by CAR T cells,[2]; [7],preserved
same,glycolytic metabolic capacity (ECAR) of CAR T cells from cocultures with imMac,CAR T cells [3],preserved
same,oxidative metabolic capacity (OCR) of CAR T cells from cocultures with imMac,CAR T cells [3],preserved
same,survival of tumor-bearing mice,Eμ-myc B cell tumors,significantly improved survival
same,production of NO in cocultures with imMac,iNOS,attenuated
same,lysis of Eμ-myc cells by CAR T cells (capacity to kill tumor cells),Eμ-myc cells; CAR T cells isolated after 48 h initial coculture with Eμ-myc cells and imMac with agent (L-NIL 50 μM; anti-IFN-γ 10 μg/mL),preserved the capacity of CAR T cells to kill tumor cells
same,production of citrulline in cocultures with imMac,[4]; coculture supernatants,attenuated
same,levels of arginine in coculture supernatants,[4]; cocultures with imMac,remained comparable
same,levels of ornithine in coculture supernatants,[4]; cocultures with imMac,remained comparable
same,CAR T cell expansion in cocultures with imMac,[1]; [6],complete rescue of CAR T cell expansion
same,depletion of dihydroxyacetone phosphate (DHAP) in CAR T cells cocultured with imMac,CAR T cells [5],reversal
same,"depletion of fructose 1,6-bisphosphate (F1,6BP) in CAR T cells cocultured with imMac",CAR T cells [5],reversal
same,depletion of glyceraldehyde 3-phosphate (G3P) in CAR T cells cocultured with imMac,CAR T cells [5],reversal
COC(=O)CCC(=O)C(=O)OC [DMKG],rescue of CAR T cell expansion by supplementation,"[1]; FIG. 15, iNOS in imMac disrupts TCA cycle progression in CAR T cells",failed to rescue CAR T cell expansion
"C=C(CC(=O)OCCCCCCCC)C(=O)O [4-OI, 4-octyl itaconate]",CAR T cell expansion,[1],impaired CAR T cell expansion
same,CAR T cell expansion,[1]; listed as 4OI,reduced CAR T cell expansion
same,CAR T cell expansion,[1]; listed as 401,reduced CAR T cell expansion

# Reference: patent US20240307335A1, “IRG Blockade to Armor CAR T Cells Against Myeloid Dysfunction” (ROSWELL PARK CANCER INSTITUTE CORPORATION, priority 2023, published 2024)
